In the test the test system is Ctenocephalides felis. Briefly: In-vivo study: topical spot-on formulations on beagle dogs infested with fleas on Day 30. To be noted: compound alone, 30 mg/kg topical, Day 30 infestation (Table 1). How it is done: In-vivo studies were conducted in compliance with International Cooperation on Harmonisation of Technical Requirements for Registration of Veterinary Products (VICH) and Good Clinical Practice (GCP) principles and practices.
In one in-vivo study, topical spot-on formulations were prepared using dipropylene glycol monomethyl ether (DPGMME) and ethanol (80:20% v/v) and butylated hydroxyl anisol (BHA) 0.1% w/v. Control was vehicle. Treatment T02 was 30 mg/kg (150 mg/mL) compound (1A1); T03 was 20 mg/kg (100 mg/mL) compound (1A1), 6.7 mg/kg (33.5 mg/mL) fipronil, and 6 mg/kg (30 mg/mL) s-methoprene; T04 was 30 mg/kg (150 mg/mL) compound (1A1), 6.7 mg/kg (50.4 mg/mL) fipronil, and 6 mg/kg (45 mg/mL) s-methoprene; and T05 was 30 mg/kg (150 mg/mL) compound (1A1), 6.7 mg/kg (33.5 mg/mL) fipronil and 6 mg/kg (30 mg/mL) s-methoprene. A total of 40 beagle dogs (8 dogs/treatment group) were used. Dogs were individually housed. Treatments were administered on Day 0. On Day 30, dogs were infested with 100 Ctenocephalides felis unfed adult fleas. Dead and non-moving fleas were counted at 24 and 48 hours after infestation (Table 1).

Consider `Cc1cccc([C@H](C)c2ncc[nH]2)c1C` [compound (1A1), 2-[(1S)-1-(2,3-dimethylphenyl)ethyl]-1H-imidazole], for which the intrinsic flea activity entry is reported as “lacks intrinsic flea activity”.

The values are drawn from patent publication US20100041712A1, “SUBSTITUTED IMIDAZOLE COMBINATIONS” (PFIZER INC., priority 2008, published 2010).
